# Assay results published in patent US5378730A, “Permeation enhancer comprising ethanol and monoglycerides” (priority 1992, dated 1995).
# Assay type: in vitro ADME, human
# Experimental: The optimum range of water in a permeation-enhancing mixture when used with the drug sodium piroxicam, where the ratio of Myverol 99K monoglyceride to ethanol is 40 to 55.4 in the mixture, was determined as follows. Various ethanol/Myverol 18-99K/water donor compositions, in the weight ratios listed in Table C, were tested with sodium piroxicam to measure their effect upon the drug flux across human cadaver epidermis at 35° C. The ratio of ethanol to monoglyceride was initially 55.4 to 40, to which varying amounts of water were added. All donor compositions were saturated with the drug. Test data were obtained using a 1.13 cm^2 wet-wet horizontal flux cell with 0.2 ml donor solution and 20 ml receptor solutions (pH 7.4 phosphate buffer, 0.05 M).
smiles,measurement,value
CN1C(C(=O)Nc2ccccn2)=C(O)c2ccccc2S1(=O)=O [sodium piroxicam],optimum range of water content in the permeation-enhancing mixture,23-33 wt %
